Source: US20230331673A1, “COMPOSITION OF COMPOUNDS THAT MODULATE CELL METABOLISM AND METHODS OF USE” (CRESCENTA BIOSCIENCES, priority 2020, published 2023)

System: differentiated 3T3-L1 mouse adipocyte cells
Test: Adipocyte glucose consumption in differentiated 3T3-L1 mouse adipocyte cells (loss of glucose from medium, colorimetric)
Assay type: cell-based
Settings: compound 10 μM, 22 to 24 hours, differentiated 3T3-L1 adipocytes, compound/DMSO, read-out: Glucose consumption (fold change) Mean
Experimental: Activity of compounds on adipocyte glucose consumption was tested in differentiated 3T3-L1 mouse adipocyte cells. 3T3-L1 preadipocytes (ATCC) were routinely cultured in a growth medium composed of DMEM high-glucose (Sigma), 10% FBS (Gibco), 10 U/ml penicillin and 10 μg/ml streptomycin (P/S; Gibco). To induce adipogenic differentiation, a confluent layer of 3T3-L1 cells were incubated with the growth medium containing 2 μM rosiglitazone, 1 μM dexamethasone, 500 μM IBMX, and 1 μg/ml insulin (Sigma). Forty-eight (48) hours later (on day 2) and on days 4 and 6, medium of the cells was replaced with fresh medium containing 1 μg/ml insulin. On days 8 and 10, the medium was refreshed with regular growth medium and addition of insulin was omitted. On day 11 or 12, medium of the cells were replaced with fresh medium containing either the indicated compounds (10 μM) or the vehicle in which the compounds were dissolved (DMSO). The final concentration of DMSO was 0.1% (v/v). Growth medium containing 0.1% DMSO was incubated in culture wells containing no cells and used as control. Twenty-two to 24 hours later, medium was harvested and subjected to centrifugation at 10,000 g for 5 min. Glucose concentration in the supernatants was determined using a colorimetric assay (Glucose Assay Kit I, Eton Biosciences). Glucose consumption in compound and vehicle treated cells was measured as loss of glucose from the culture medium and represented as mean fold change (compound/DMSO) t standard deviation (SD).

SMILES	fold induction at 10 µM
CCCCCCC1CCCc2c(n(Cc3cccc(C#N)c3F)c3c(C(=O)O)cccc23)C1 (stereo not drawn) [5-[(3-cyano-2-fluorophenyl)methyl]-7-hexyl-5H,6H,7H,8H,9H,10H-cyclohepta[b]indole-4-carboxylic acid]	1.36
CCCCCCC1CCCc2c(n(Cc3cccc(C#N)c3)c3c(C(=O)O)cc(F)cc23)C1 (stereo not drawn) [5-[(3-cyanophenyl)methyl]-2-fluoro-7-hexyl-5H,6H,7H,8H,9H,10H-cyclohepta[b]indole-4-carboxylic acid]	1.33
N#Cc1cccc(Cn2c3c(c4cccc(C(=O)O)c42)CCCC(CCc2ccccc2)C3)c1 (stereo not drawn) [5-[(3-cyanophenyl)methyl]-7-(2-phenylethyl)-5H,6H,7H,8H,9H,10H-cyclohepta[b]indole-4-carboxylic acid]	1.02
CCC1CCCc2c(n(Cc3cccc(C#N)c3)c3c(C(=O)O)cccc23)C1 (stereo not drawn) [5-[(3-cyanophenyl)methyl]-7-ethyl-5H,6H,7H,8H,9H,10H-cyclohepta[b]indole-4-carboxylic acid]	1.16
CCCCCCC1CCCc2c(n(Cc3cccc(C#N)c3)c3c(C(=O)O)cccc23)C1 (stereo not drawn) [5-[(3-cyanophenyl)methyl]-7-hexyl-5H,6H,7H,8H,9H,10H-cyclohepta[b]indole-4-carboxylic acid]	1.26
CCCCCCCCC1CCCc2c(n(Cc3cccc(C#N)c3)c3c(C(=O)O)cccc23)C1 (stereo not drawn) [5-[(3-cyanophenyl)methyl]-7-octyl-5H,6H,7H,8H,9H,10H-cyclohepta[b]indole-4-carboxylic acid]	1.12
CCCCCC1CCCc2c(n(Cc3cccc(C#N)c3)c3c(C(=O)O)cccc23)C1 (stereo not drawn) [5-[(3-cyanophenyl)methyl]-7-pentyl-5H,6H,7H,8H,9H,10H-cyclohepta[b]indole-4-carboxylic acid]	1.35
CCC1CCCCc2c1c1cccc(C(=O)O)c1n2Cc1cccc(C#N)c1 (stereo not drawn) [5-[(3-cyanophenyl)methyl]-10-ethyl-5H,6H,7H,8H,9H,10H-cyclohepta[b]indole-4-carboxylic acid]	1.15
CCCCCC1CCCCc2c1c1cccc(C(=O)O)c1n2Cc1cccc(C#N)c1 (stereo not drawn) [5-[(3-cyanophenyl)methyl]-10-pentyl-5H,6H,7H,8H,9H,10H-cyclohepta[b]indole-4-carboxylic acid]	1.2
CCCC1CCCCc2c1c1cccc(C(=O)O)c1n2Cc1cccc(C#N)c1 (stereo not drawn) [5-[(3-cyanophenyl)methyl]-10-propyl-5H,6H,7H,8H,9H,10H-cyclohepta[b]indole-4-carboxylic acid]	1.18
CCCCCCC1CCCc2c(n(Cc3cccc(F)c3)c3c(C(=O)O)cccc23)C1 (stereo not drawn) [5-[(3-fluorophenyl)methyl]-7-hexyl-5H,6H,7H,8H,9H,10H-cyclohepta[b]indole-4-carboxylic acid]	1.14
CCCCCCC1CCCc2c(n(Cc3ccc(C(N)=O)cc3)c3c(C(=O)O)cccc23)C1 (stereo not drawn) [5-[(4-carbamoylphenyl)methyl]-7-hexyl-5H,6H,7H,8H,9H,10H-cyclohepta[b]indole-4-carboxylic acid]	1.05
CCCCCCC1CCCc2c(n(Cc3ccc(C#N)cc3)c3c(C(=O)O)cccc23)C1 (stereo not drawn) [5-[(4-cyanophenyl)methyl]-7-hexyl-5H,6H,7H,8H,9H,10H-cyclohepta[b]indole-4-carboxylic acid]	0.94
CCCCCCC1CCCc2c(n(Cc3ccc(F)cc3)c3c(C(=O)O)cccc23)C1 (stereo not drawn) [5-[(4-fluorophenyl)methyl]-7-hexyl-5H,6H,7H,8H,9H,10H-cyclohepta[b]indole-4-carboxylic acid]	1.17
CCCCCCC1CCCc2c(n(Cc3ccc(C#N)o3)c3c(C(=O)O)cccc23)C1 (stereo not drawn) [5-[(5-cyanofuran-2-yl)methyl]-7-hexyl-5H,6H,7H,8H,9H,10H-cyclohepta[b]indole-4-carboxylic acid]	1.29
CCCCCCC1CCCc2c(n(Cc3cncc(C#N)c3)c3c(C(=O)O)cccc23)C1 (stereo not drawn) [5-[(5-cyanopyridin-3-yl)methyl]-7-hexyl-5H,6H,7H,8H,9H,10H-cyclohepta[b]indole-4-carboxylic acid]	1.06
CCCCCCC1CCCc2c(n(Cc3ccc(C#N)s3)c3c(C(=O)O)cccc23)C1 (stereo not drawn) [5-[(5-cyanothiophen-2-yl)methyl]-7-hexyl-5H,6H,7H,8H,9H,10H-cyclohepta[b]indole-4-carboxylic acid]	1.05
CCCCCCC1CCCc2c(n(Cc3csc(C#N)c3)c3c(C(=O)O)cccc23)C1 (stereo not drawn) [5-[(5-cyanothiophen-3-yl)methyl]-7-hexyl-5H,6H,7H,8H,9H,10H-cyclohepta[b]indole-4-carboxylic acid]	1.2

SMILES	fold induction at 10 µM
CCCCCCC1CCCc2c(n(Cc3cccc(C(N)=O)n3)c3c(C(=O)O)cccc23)C1 (stereo not drawn) [5-[(6-carbamoylpyridin-2-yl)methyl]-7-hexyl-5H,6H,7H,8H,9H,10H-cyclohepta[b]indole-4-carboxylic acid]	1.23
CCCCCCC1CCCc2c(n(Cc3cccc(C#N)n3)c3c(C(=O)O)cccc23)C1 (stereo not drawn) [5-[(6-cyanopyridin-2-yl)methyl]-7-hexyl-5H,6H,7H,8H,9H,10H-cyclohepta[b]indole-4-carboxylic acid]	1.28
CCCCCCC1CCCc2c(n(Cc3cccc(F)n3)c3c(C(=O)O)cccc23)C1 (stereo not drawn) [5-[(6-fluoropyridin-2-yl)methyl]-7-hexyl-5H,6H,7H,8H,9H,10H-cyclohepta[b]indole-4-carboxylic acid]	1.25
CCCCCCC1CCCc2c(n(Cc3cccc(C(=O)O)n3)c3c(C(=O)O)cccc23)C1 (stereo not drawn) [6-({4-carboxy-7-hexyl-5H,6H,7H,8H,9H,10H-cyclohepta[b]indol-5-yl}methyl)pyridine-2-carboxylic acid]	0.96
CCCCC1CCCCc2c1n(Cc1cccc(C(N)=O)c1)c1c(C(=O)O)cccc21 (stereo not drawn) [6-butyl-5-[(3-carbamoylphenyl)methyl]-5H,6H,7H,8H,9H,10H-cyclohepta[b]indole-4-carboxylic acid]	1.03
CCCCC1CCCCc2c1n(Cc1cccc(C#N)c1)c1c(C(=O)O)cccc21 (stereo not drawn) [6-butyl-5-[(3-cyanophenyl)methyl]-5H,6H,7H,8H,9H,10H-cyclohepta[b]indole-4-carboxylic acid]	1.16
CCCCC1CCCc2c(n(Cc3ccccc3C(N)=O)c3c(C(=O)O)cccc23)C1 (stereo not drawn) [7-butyl-5-[(2-carbamoylphenyl)methyl]-5H,6H,7H,8H,9H,10H-cyclohepta[b]indole-4-carboxylic acid]	1.11
CCCCC1CCCc2c(n(Cc3ccccc3C#N)c3c(C(=O)O)cccc23)C1 (stereo not drawn) [7-butyl-5-[(2-cyanophenyl)methyl]-5H,6H,7H,8H,9H,10H-cyclohepta[b]indole-4-carboxylic acid]	1.1
CCCCC1CCCc2c(n(Cc3ccccc3F)c3c(C(=O)O)cccc23)C1 (stereo not drawn) [7-butyl-5-[(2-fluorophenyl)methyl]-5H,6H,7H,8H,9H,10H-cyclohepta[b]indole-4-carboxylic acid]	1.11
CCCCC1CCCc2c(n(Cc3ccccc3C)c3c(C(=O)O)cccc23)C1 (stereo not drawn) [7-butyl-5-[(2-methylphenyl)methyl]-5H,6H,7H,8H,9H,10H-cyclohepta[b]indole-4-carboxylic acid]	1.12
CCCCC1CCCc2c(n(Cc3cccc(C(N)=O)c3)c3c(C(=O)O)cccc23)C1 (stereo not drawn) [7-butyl-5-[(3-carbamoylphenyl)methyl]-5H,6H,7H,8H,9H,10H-cyclohepta[b]indole-4-carboxylic acid]	1.12
CCCCC1CCCc2c(n(Cc3cccc(C(N)=O)c3)c3c(C(=O)NCCO)cccc23)C1 (stereo not drawn) [7-butyl-5-[(3-carbamoylphenyl)methyl]-N-(2-hydroxyethyl)-5H,6H,7H,8H,9H,10H-cyclohepta[b]indole-4-carboxamide]	0.98
CCCCC1CCCc2c(n(Cc3cccc(C(=O)O)c3)c3c(C(=O)O)cccc23)C1 (stereo not drawn) [7-butyl-5-[(3-carboxyphenyl)methyl]-5H,6H,7H,8H,9H,10H-cyclohepta[b]indole-4-carboxylic acid]	0.95
CCCCC1CCCc2c(n(Cc3cccc(Cl)c3)c3c(C(=O)O)cccc23)C1 (stereo not drawn) [7-butyl-5-[(3-chlorophenyl)methyl]-5H,6H,7H,8H,9H,10H-cyclohepta[b]indole-4-carboxylic acid]	1.18
CCCCC1CCCc2c(n(Cc3cccc(C#N)c3)c3c(C(=O)O)cccc23)C1 (stereo not drawn) [7-butyl-5-[(3-cyanophenyl)methyl]-5H,6H,7H,8H,9H,10H-cyclohepta[b]indole-4-carboxylic acid]	1.29
CCCCC1CCCc2c(n(Cc3cccc(C#N)c3)c3c(C(=O)NCCO)cccc23)C1 (stereo not drawn) [7-butyl-5-[(3-cyanophenyl)methyl]-N-(2-hydroxyethyl)-5H,6H,7H,8H,9H,10H-cyclohepta[b]indole-4-carboxamide]	1.08
CCCCC1CCCc2c(n(Cc3cccc(F)c3)c3c(C(=O)O)cccc23)C1 (stereo not drawn) [7-butyl-5-[(3-fluorophenyl)methyl]-5H,6H,7H,8H,9H,10H-cyclohepta[b]indole-4-carboxylic acid]	1.12
CCCCC1CCCc2c(n(Cc3cccc(O)c3)c3c(C(=O)O)cccc23)C1 (stereo not drawn) [7-butyl-5-[(3-hydroxyphenyl)methyl]-5H,6H,7H,8H,9H,10H-cyclohepta[b]indole-4-carboxylic acid]	1.14
